Results on 4 compounds are retold here after patent US20090099197A1 (priority 2005, published 2009).

The test system of series [1] is K562/STI-571/R tumor xenografts. As to the kind of experiment: Tumor response in imatinib-resistant K562/STI-571/R xenograft model. Type of series: in vivo, SCID mice.
Series [2] relates to K562/ADM (K562 cells over-expressing MDR-1). Nature of the series: In vitro proliferation/cytotoxicity assay, MDR-1 overexpressing K562/ADM cells. The following applies: for IC50: Homo sapiens. The format is cell-based, human. The procedure: Two cell lines were used: K562 (erythromyeloblastoid CML) and K562/ADM (K562 cells over-expressing MDR-1).
Experiments were performed as described in Example 1 except that K562/ADM cells were used.

For series [3], the system named is K562 (erythromyeloblastoid CML) cells. Nature of the series: cells. The following applies: Homo sapiens, K562, 72 h.
For a further series, the system named is wild-type BCR-ABL. The settings on record: cited from earlier work.
Series [4] deals with imatinib-resistant BCR-ABL mutants. The settings on record: cited from earlier work.
For series [5], the system named is K562-R (K562/STI-571/R) imatinib resistant cells. As to the kind of experiment: cells. The following applies: Homo sapiens, K-562R.
The test system is the same in series [6].
Series [7] relates to K562 intracranial CML tumor model. As to the kind of experiment: Survival of mice bearing intracranial K562 CML. The following applies: BIDx10. The format is in vivo. The procedure:
Extramedullary complications, particular in the CNS, are known risks of Ph+ALL or Ph+CML in lymphoid blast crisis. […] Both drugs were administered orally to mice inoculated intracranially (IC) with K562 cells using a BID×10 treatment schedule.

The subject of series [8] is K562 (erythromyeloblastoid CML) cells.
The next series in a line: in vivo. The settings on record: SCID, mouse. The procedure:
Concentrations and dosing frequency are as specified in FIG. 4A. […] Experiments were performed as described in Example 4.

Series [9] has as its system K562/ADM tumor xenografts. As to the kind of experiment: Tumor response in SC K562/ADM leukemia xenograft model. Type of series: in vivo, mice. The following applies: QDx14. The procedure:
(B) Activity versus K562/ADM tumor xenografts. Mice were implanted subcutaneously (SC) on Day 0 with K562/ADM. On Day 18 when tumors were at a size range of 100-200 mg, treatment began. […] Experiments were performed as described in Example 3.
Tumors implanted in mouse xenograft models were allowed to grow to a pre-determined size of 100-300 mg (tumors outside the range were excluded) and animals were evenly distributed to treatment and control groups. Treated animals were checked daily for treatment-related toxicity/mortality. […] The difference in body weight (Wt2−Wt1) provides a measure of treatment-related toxicity. Tumor weights (mg) were estimated from the formula: tumor weight=(length×width^2)/2.
Log cell kill was also used as a measure of anti-tumor activity according to the following equation: log cell kill=T−C/(3.32×TVDT). In this equation: T=mean tumor weight at the end of treatment for the treated group; C=mean tumor weight at the end of treatment for the control group; and TVDT=median time (days) for control tumor weight to reach target size−median time (days) for control tumor weight to reach half the target size.
A maximum tolerated dose (MTD), frequently equivalent to the optimal dose, was defined as a dose immediately below that causing unacceptable toxicity (i.e. more than one death) or, in the absence of any deaths, when accompanied by >20% loss of body weight.

Another series relates to intracranial K562 cells. As to the kind of experiment: Bioluminescence imaging of intracranially inoculated K562 cells. Type of series: in vivo, SCID mice. The settings on record: 15 mg/kg, 2qdx14, M-F, po. The procedure: Experiments were performed as described in Example 4.
[10] abbreviates: K562 cells, 72 hours incubation.

“Also recorded” adds a separate entry of the source. Where two headings read alike, the source gives them in different places. A value given as a limit tells only on which side of the number the result lay.

`Cc1ccc(NC(=O)c2ccc(CN3CCN(C)CC3)cc2)cc1Nc1nccc(-c2cccnc2)n1` [imatinib, reference compound]: in series [1] (imatinib 75 and 150 mg/kg three times daily), the effect on tumors result is listed as “little or no impact”.

A word on the IC50: it is the concentration at which inhibition is half-maximal. In the case of `COc1cccc2c1C(=O)c1c(O)c3c(c(O)c1C2=O)C[C@@](O)(C(=O)CO)C[C@@H]3O[C@H]1C[C@H](N)[C@H](O)[C@H](C)O1` [adriamycin], the IC50 in series [2] (K562/ADM cells, read-out: IC50) came to 1250 nM; in series [3] it was 21 nM. In series [2] (K562/ADM versus parent K562 cells), the “fold resistance (IC50 K562/ADM versus K562)” value is reported as 60 fold.

Turning to `Cc1cn(-c2cc(NC(=O)c3ccc(C)c(Nc4nccc(-c5cccnc5)n4)c3)cc(C(F)(F)F)c2)cn1` [AMN107], the half-maximal inhibitory concentration (IC50) with wild-type BCR-ABL is […]. In series [4], the “imatinib-resistant BCR-ABL mutants/mutations against which active” value was 32/33.

On to `Cc1nc(Nc2ncc(C(=O)Nc3c(C)cccc3Cl)s2)cc(N2CCN(CCO)CC2)n1` [dasatinib, N-(2-chloro-6-methylphenyl)-2-[[6-[4-(2-hydroxyethyl)-1-piperazinyl]-2-methyl-4-pyrimidinyl]amino]-5-thiazolecarboxamide], for which the half-maximal inhibitory concentration (IC50) in series [2] (K562, K562/ADM cells) was around 3 nM; in [5], 4.4 nM; in series [3] (setting [10]) it was 0.7 nM; in series [8] (setting [10]) it was 0.5 nM. Moreover, the effect on tumor result in series [1] (dasatinib 5 mg/kg (lowest dose)) is reported as “tumor regressed initially”. Besides, the “effect on tumor size” value in series [1] (dasatinib, all doses except the lowest tested (5 mg/kg)) is given as “substantial reductions in tumor size”. Further, the “resistance factor (IC50 K562-R versus K562)” value in series [6] turned out to be 6 fold. Moreover, the “increase in lifespan (ILS)” value is 268% in series [7] (5 mg/kg/adm oral) and 450% in [7] (15 mg/kg/adm oral). The “sensitivity of K562 cells (percent growth inhibition), comparison” value in series [8] (dasatinib versus imatinib or AMN107, FIG. 1A) is reported as “significantly more sensitive to dasatinib than either imatinib or AMN107”. This compound also returned a Kp in “in vivo” of 0.05 to 0.1. Further, the anti-leukemic activity result in [9] (5 mg/kg PO) was “inactive”; in series [9] (30 mg/kg PO), “completely eliminated tumors”. Also, in series [9] (15 mg/kg PO, P=0.0009), the growth delay is given as 16.7 days. Besides, the “bioluminescence of intracranial K562 cells after treatment” value in the series on intracranial K562 cells is “virtually no bioluminescence; also recorded: marked reduction of bioluminescence”.
